A word on the melting point: it is the temperature, or range, at which the solid turns liquid.

On to `COc1ccc(C(=O)Nc2ccc(-c3ccc(-c4nc(C)no4)cc3C)cc2)cc1CCCN(C)C` [Example 71, 3-[3-(Dimethylamino)propyl]-4-methoxy-N-[2′-methyl-4′-(3-methyl-1,2,4-oxadiazol-5-yl)[1,1′-biphenyl]-4-yl]benzamide], for which the melting point is 166 to 167 °C.

The compound `CCc1ccc(-c2ccc(NC(=O)c3ccc(OC)c(CCCN(C)C)c3)cc2)cc1` [Example 6, 3-[3-(Dimethylamino)propyl]-N-(4′-ethyl[1,1′-biphenyl]-4-yl)-4-methoxybenzamide] had a melting point of 200 to 202 °C.

Take `COc1ccc(C(=O)Nc2ccc(-c3ccc(C(C)=O)cc3)c(C)c2)cc1CCCN(C)C.Cl`: the melting point is 264 to 266 °C.

Compound `COc1ccc(C(=O)Nc2ccc(-c3ccccc3C(C)O)cc2)cc1CCCN(C)C.Cl` (stereo not shown) registered a melting point of 224 to 227 °C.

Take `COc1ccc(C(=O)Nc2ccc(-c3ccc(CO)c(O)c3)cc2)cc1CCCN(C)C` [Example 20(b), 3-[3-(Dimethylamino)propyl]-N-[3′-hydroxy-4′-(hydroxymethyl)[1,1′-biphenyl]-4-yl]-4-methoxybenzamide]: the melting point lay in the range of 171 to 173 °C.

In turn, `COc1ccc(C(=O)Nc2ccc(-c3ccc(CO)cc3C)c(C)c2)cc1CCCN(C)C` [Example 41, 3-[3-(Dimethylamino)propyl]-N-[4′-(hydroxymethyl)-2,2′-dimethyl[1,1′-biphenyl]-4-yl]-4-methoxybenzamide] gave a melting point of 68 to 70 °C.

Turning to `COc1ccc(C(=O)Nc2ccc(-c3ccc(C(C)=O)cc3)cc2)cc1CCN(C)C` [1(b), N-(4′-Acetyl[1,1′-biphenyl]-4-yl)-3-[2-(dimethylamino)ethyl]-4-methoxybenzamide], the melting point fell in the range of 236 to 240 °C.

(Values after US20050065195A1, “Oxadiazolyl-biphenylcarboxamides and their use as p38 kinase inhibitors” (priority 2001, published 2005).)
